Among the data in patent US20210238192A1, “VASCULAR ADHESION PROTEIN-1 (VAP-1) MODULATORS AND THERAPEUTIC USES THEREOF” (Blade Therapeutics, Inc., priority 2018, published 2021) are IC50 values, retold here.

Holding throughout (format): biochemical
For one test, the target named is T1, Human MAO-B (Homo sapiens, UniProt P27338).
T1 sequence (P27338 1-520): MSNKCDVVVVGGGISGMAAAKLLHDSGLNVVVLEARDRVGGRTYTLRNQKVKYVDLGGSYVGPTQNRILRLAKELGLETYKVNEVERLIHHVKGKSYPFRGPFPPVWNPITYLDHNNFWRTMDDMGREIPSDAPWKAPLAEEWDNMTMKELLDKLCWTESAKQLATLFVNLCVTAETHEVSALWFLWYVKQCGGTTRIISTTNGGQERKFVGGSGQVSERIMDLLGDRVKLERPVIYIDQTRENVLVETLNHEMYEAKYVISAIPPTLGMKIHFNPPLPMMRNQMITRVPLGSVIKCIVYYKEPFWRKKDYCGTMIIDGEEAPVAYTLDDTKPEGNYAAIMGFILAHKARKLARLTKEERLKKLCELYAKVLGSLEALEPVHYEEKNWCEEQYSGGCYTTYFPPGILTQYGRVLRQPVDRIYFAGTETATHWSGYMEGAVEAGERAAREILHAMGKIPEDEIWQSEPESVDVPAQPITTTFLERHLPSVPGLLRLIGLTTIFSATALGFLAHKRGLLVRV
Put plainly: MAO-B inhibition (Amplex Red continuous fluorescence assay). As to conditions: 30 min pre-incubation at room temp; substrate benzylamine; read-out: Human MAO-B IC50. The method, boiled down: (§1)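 Continuous Amplex Red/HRP fluorescence read of H2O2 (ex/em 510/565 nm, 5 min). Substrates and buffers: VAP-1 benzylamine, […] sodium phosphate pH 7.4, 30 min 37° C preincubation; MAO-A tyramine and MAO-B benzylamine, same buffer, room temp; DAO histamine, 50 mM HEPES pH 7.5, room temp. IC50 from 4-parameter fit of rates.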

A further test deals with T2, Human MAO-A (Homo sapiens, UniProt P21397).
T2 sequence (P21397 1-527): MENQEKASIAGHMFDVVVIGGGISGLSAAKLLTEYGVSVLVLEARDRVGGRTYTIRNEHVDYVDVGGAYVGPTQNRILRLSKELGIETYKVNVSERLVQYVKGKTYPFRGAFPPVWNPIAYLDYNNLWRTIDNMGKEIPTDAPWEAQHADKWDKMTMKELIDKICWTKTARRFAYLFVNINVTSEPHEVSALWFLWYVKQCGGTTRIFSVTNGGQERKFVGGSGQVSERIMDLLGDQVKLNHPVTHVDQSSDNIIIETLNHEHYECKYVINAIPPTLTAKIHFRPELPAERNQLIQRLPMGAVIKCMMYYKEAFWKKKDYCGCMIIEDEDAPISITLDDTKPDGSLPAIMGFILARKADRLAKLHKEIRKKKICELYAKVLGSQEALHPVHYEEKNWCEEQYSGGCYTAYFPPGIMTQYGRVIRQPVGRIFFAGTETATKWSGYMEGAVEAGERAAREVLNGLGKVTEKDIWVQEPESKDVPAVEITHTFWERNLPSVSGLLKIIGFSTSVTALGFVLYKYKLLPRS
Put plainly: MAO-A inhibition (Amplex Red continuous fluorescence assay). As to conditions: 30 min pre-incubation at room temp; substrate tyramine; read-out: Human MAO-A IC50. Summed up:
as §1

A further test has as its target T3, Human VAP-1 (Homo sapiens, UniProt Q16853).
T3 sequence (Q16853 1-763): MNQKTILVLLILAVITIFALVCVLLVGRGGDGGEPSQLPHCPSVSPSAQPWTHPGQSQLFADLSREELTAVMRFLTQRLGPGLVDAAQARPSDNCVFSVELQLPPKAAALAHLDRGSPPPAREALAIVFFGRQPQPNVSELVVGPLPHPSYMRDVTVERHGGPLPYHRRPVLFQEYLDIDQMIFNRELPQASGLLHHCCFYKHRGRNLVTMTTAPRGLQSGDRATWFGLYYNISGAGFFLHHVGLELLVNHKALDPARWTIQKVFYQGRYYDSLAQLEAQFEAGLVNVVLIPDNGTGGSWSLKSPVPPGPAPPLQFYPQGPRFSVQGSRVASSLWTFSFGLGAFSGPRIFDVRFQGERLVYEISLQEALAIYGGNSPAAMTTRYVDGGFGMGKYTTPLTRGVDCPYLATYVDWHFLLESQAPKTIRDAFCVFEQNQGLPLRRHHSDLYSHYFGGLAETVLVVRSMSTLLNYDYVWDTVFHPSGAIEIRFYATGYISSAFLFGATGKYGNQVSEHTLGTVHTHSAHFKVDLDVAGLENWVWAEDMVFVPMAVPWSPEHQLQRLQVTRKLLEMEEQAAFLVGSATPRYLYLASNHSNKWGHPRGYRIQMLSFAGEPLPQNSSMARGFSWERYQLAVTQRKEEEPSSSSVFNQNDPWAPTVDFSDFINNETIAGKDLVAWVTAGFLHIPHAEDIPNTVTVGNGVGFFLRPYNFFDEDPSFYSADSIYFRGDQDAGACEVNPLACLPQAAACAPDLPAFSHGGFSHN
Nature of the test: VAP-1 inhibition assay (Amplex Red continuous fluorescence assay). As to conditions: 30 min pre-incubation at 37° C.; substrate benzylamine; read-out: Human VAP-1 IC50. The method, boiled down: as §1

The target of the next test is T4, Human DAO (Homo sapiens, UniProt P19801).
T4 sequence (P19801 20-751): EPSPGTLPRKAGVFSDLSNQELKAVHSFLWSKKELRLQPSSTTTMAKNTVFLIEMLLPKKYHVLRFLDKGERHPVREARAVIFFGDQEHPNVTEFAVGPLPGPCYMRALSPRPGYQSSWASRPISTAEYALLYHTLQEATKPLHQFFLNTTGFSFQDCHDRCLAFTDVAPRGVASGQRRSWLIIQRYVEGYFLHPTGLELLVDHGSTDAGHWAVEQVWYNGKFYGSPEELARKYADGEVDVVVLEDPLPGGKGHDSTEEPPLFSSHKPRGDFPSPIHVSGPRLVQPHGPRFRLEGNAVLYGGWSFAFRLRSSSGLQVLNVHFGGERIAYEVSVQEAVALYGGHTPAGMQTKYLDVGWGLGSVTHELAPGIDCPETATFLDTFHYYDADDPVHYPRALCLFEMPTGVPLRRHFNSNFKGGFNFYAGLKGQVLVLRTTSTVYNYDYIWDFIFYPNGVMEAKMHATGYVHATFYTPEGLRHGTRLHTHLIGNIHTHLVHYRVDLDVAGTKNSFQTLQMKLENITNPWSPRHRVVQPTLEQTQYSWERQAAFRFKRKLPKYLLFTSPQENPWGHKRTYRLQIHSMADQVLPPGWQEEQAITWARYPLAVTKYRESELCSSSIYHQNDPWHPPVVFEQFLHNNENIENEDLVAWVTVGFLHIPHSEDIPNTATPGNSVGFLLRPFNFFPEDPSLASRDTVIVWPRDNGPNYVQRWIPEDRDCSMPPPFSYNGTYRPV
Nature of the test: DAO inhibition (Amplex Red continuous fluorescence assay). As to conditions: 30 min pre-incubation at room temp; substrate histamine; read-out: Human DAO IC50. Summed up: as §1

Where a name gives a salt, the structure may show the parent alone. Some results are limits rather than exact numbers.

In the case of `Cn1cnc(-c2ccc(OC/C(=C/F)CN)cc2)c1` [Compound 39, (E)-3-fluoro-2-((4-(1-methyl-1H-imidazol-4-yl)phenoxy)methyl)prop-2-en-1-amine], the IC50 (as a rule, the concentration at which inhibition is half-maximal) is < 3 µM at Human MAO-B, > 10 µM on Human MAO-A, < 3 µM on Human VAP-1 and < 3 µM on Human DAO.

On to `CCNC(=O)N(C)c1ccc(NC/C(=C/F)CN)cc1` [Compound 66, (E)-1-(4-((2-(aminomethyl)-3-fluoroalkyl)amino)phenyl)-3-ethyl-1-methylurea], for which the IC50 at Human MAO-B is > 10 µM; at Human MAO-A, > 10 µM; on Human VAP-1 it was < 3 µM; at Human DAO, > 10 µM.

In the case of `NC/C(=C/F)COc1ccc(-c2ncco2)cc1` [Compound 53, (Z)-3-fluoro-2-((4-(oxazol-2-yl)phenoxy)methyl)prop-2-en-1-amine hydrochloride], the IC50 was < 3 µM at Human MAO-B, 3 to 10 µM on Human MAO-A, < 3 µM at Human VAP-1 and < 3 µM at Human DAO.

Consider `CCNC(=O)N(C)c1ccc(OC/C(=C/F)CN)cc1` [Compound 23, (E)-1-(4-((2-(aminomethyl)-3-fluoroalkyl)oxy)phenyl)-3-ethyl-1-methylurea hydrochloride], for which the IC50 at Human MAO-B was 3 to 10 µM; at Human MAO-A it was > 10 µM; on Human VAP-1, < 3 µM; at Human DAO, > 10 µM.

Consider `CC(C)(C)NC(=O)c1cn(CC(=CF)CN)c2ccccc12` [Compound 70, 1-(2-(aminomethyl)-3-fluoroalkyl)-N-(tert-butyl)-1H-indole-3-carboxamide], for which the IC50 was > 10 µM on Human MAO-B, < 3 µM at Human MAO-A, < 3 µM at Human VAP-1 and > 10 µM on Human DAO.

For the compound `NC/C(=C\F)COc1ccc(-c2ncc[nH]2)cc1` [Compound 4, (E)-2-((4-(1H-imidazol-2-yl)phenoxy)methyl)-3-fluoroprop-2-en-1-amine], the IC50 was > 10 µM on Human MAO-B, > 10 µM at Human MAO-A, < 3 µM at Human VAP-1 and < 3 µM at Human DAO.

Consider `NC/C(=C\F)COc1ccc(C2=NCCN2)cc1` [Compound 61, (E)-2-((4-(4,5-dihydro-1H-imidazol-2-yl)phenoxy)methyl)-3-fluoroprop-2-en-1-amine], for which the IC50 is > 10 µM on Human MAO-B, > 10 µM on Human MAO-A, < 3 µM at Human VAP-1 and < 3 µM at Human DAO.

Turning to `Cn1nccc1-c1ccc(OC/C(=C/F)CN)cc1` [Compound 48, (E)-3-fluoro-2-((4-(1-methyl-1H-pyrazol-5-yl)phenoxy)methyl)prop-2-en-1-amine hydrochloride], the IC50 at Human MAO-B is < 3 µM; on Human MAO-A, > 10 µM; on Human VAP-1, < 3 µM; at Human DAO it was < 3 µM.

With `Cn1ccc(-c2ccc(OC/C(=C/F)CN)cc2)n1` [Compound 50, (E)-3-fluoro-2-((4-(1-methyl-1H-pyrazol-3-yl)phenoxy)methyl)prop-2-en-1-amine hydrochloride], the IC50 at Human MAO-B was < 3 µM; at Human MAO-A it was 3 to 10 µM; at Human VAP-1, < 3 µM; on Human DAO, < 3 µM.

Consider `CC(C)(C)NC(=O)c1ccc(NC/C(=C/F)CN)cc1` [Compound 45, (E)-4-((2-(aminomethyl)-3-fluoroalkyl)amino)-n-(tert-butyl)benzamide hydrochloride], for which the IC50 at Human MAO-B is < 3 µM; at Human MAO-A, > 10 µM; on Human VAP-1, < 3 µM; at Human DAO it was > 10 µM.

For `Cn1ccc(-c2ccc(OC/C(=C\F)CN)cc2)n1` [Compound 54, (Z)-3-fluoro-2-((4-(1-methyl-1H-pyrazol-3-yl)phenoxy)methyl)prop-2-en-1-amine hydrochloride], the IC50 at Human MAO-B is < 3 µM; at Human MAO-A, 3 to 10 µM; at Human VAP-1, < 3 µM; at Human DAO, < 3 µM.

With `NC/C(=C\F)CNCc1ccccc1` [Compound 26, (E)-N^1-benzyl-2-(fluoromethylene)propane-1,3-diamine], the IC50 is < 3 µM at Human MAO-B, 3 to 10 µM on Human MAO-A, < 3 µM on Human VAP-1 and > 10 µM at Human DAO.

Take `NC/C(=C/F)COC(=O)Nc1ccccc1` [Compound 68, (Z)-2-(aminomethyl)-3-fluoroalkyl phenylcarbamate]: the IC50 on Human MAO-B, at Human MAO-A, at Human VAP-1 and on Human DAO was < 3 µM in each case.

For the compound `NC/C(=C/F)COc1cnc(N2CC[C@H](O)C2)nc1` [Compound 80], the IC50 is > 10 µM on Human MAO-B, > 10 µM on Human MAO-A, < 3 µM on Human VAP-1 and < 3 µM on Human DAO.

Regarding `CC(C)NC(=O)Nc1ccc(OC/C(=C/F)CN)cc1` [Compound 18, (E)-1-(4-((2-(aminomethyl)-3-fluoroalkyl)oxy)phenyl)-3-isopropylurea hydrochloride], the IC50 at Human MAO-B was < 3 µM; at Human MAO-A it was < 3 µM; at Human VAP-1 it was < 3 µM; at Human DAO it was 3 to 10 µM.

Turning to `CCNC(=O)Oc1ccc(OC/C(=C/F)CN)cc1` [Compound 55, (E)-4-((2-(aminomethyl)-3-fluoroalkyl)oxy)phenyl ethylcarbamate], the IC50 was < 3 µM on Human MAO-B, < 3 µM at Human MAO-A, < 3 µM at Human VAP-1 and > 10 µM at Human DAO.

For the compound `CCOC(=O)Nc1ccc(OC/C(=C/F)CN)cc1` [Compound 13], the IC50 on Human MAO-B is < 3 µM; on Human MAO-A it was < 3 µM; on Human VAP-1 it was < 3 µM; at Human DAO it was 3 to 10 µM.
